In patent US20090221522A1, “METHODS TO CORRECT GENE SET EXPRESSION PROFILES TO DRUG SENSITIVITY” (The Johns Hopkins University, priority 2008, published 2009):

System: direct pancreatic cancer xenografts (fine needle aspiration cells)
Experiment: Ex vivo perturbability assay, low-density microarray RT-PCR
Type: cell-based
Design: key to RRM1 gene expression / NFKB1 gene expression / BNIP3L gene expression / VHL gene expression / DCK gene expression / HIF1B gene expression / IGF1R gene expression / MAPK1 gene expression / MAP2K2 gene expression / JUN gene expression / IHH gene expression: % of untreated control (treated sample normalized to untreated)
Details: treated normalized to untreated control
From the text: Direct pancreatic cancer derived xenografts: Resected pancreatic adenocarcinomas are routinely implanted in nude mice at the Johns Hopkins Medical Institutions as a method to obtain enriched populations of neoplastic cells under an IRB-approved protocol from residual pancreatic cancer tumors. Tumor specimens from Whipple resection specimens were divided into 2-3 mm^3 pieces in antibiotic-containing RPMI media. Pieces of non-necrotic tissue were selected and immersed in Matrigel. Under anesthesia with isofluorane, tumors were implanted into five-to-six week-old female athymic (nu/nu) mice purchased from Harlan (Harlan Laboratories, Washington, D.C.). This research protocol was approved by the Johns Hopkins University Animal Use and Care Committee arid animals were maintained in accordance to guidelines of the American Association of Laboratory Animal Care. Tumors were propagated to subsequent cohorts of mice until a sufficient number were available for drug testing.
Fine needle aspiration (FNA): FNAs on mice were performed according to standard cytopathologic practice using 10 cc syringes and 25-gauge needles. The procedure was performed under inhaled general anesthesia with isofluorane. During each FNA procedure the first pass was smeared onto glass slides and used for morphologic analysis and quality control, (DiffQuik™ and Papanicoloau), and the second through sixth passes were used to acquire viable cells.
Ex vivo assay: FNA passes used to acquire viable cells were immediately transferred into 10 ml sterile prewarmed complete RPMI-1640 culture medium containing 10% FBS, penicillin (200 ug/ml), and streptomycin (200 ug/ml). Equivalent aliquots of cells were seeded in two wells of a 6-well polypropylene microplate. […] Following treatment, non-adherent and adherent cells (collected by scraping) were pooled together in a 1.5 mL microcentrifuge tube and centrifuged at 500 g for 5 mm at 4° C. After washing with PBS, cells were lysed in 100 μL of ice-cold RLT.
RNA extraction and cDNA generation: Total RNA was extracted from cells using the RNeasy™ Mini Kit (Qiagen, Valencia, Calif.) following the manufacturer's instructions. cDNA was synthesized using iScript cDNA synthesis kit (Bio-Rad) following the manufacturer's instructions.
Low-density micro arrays (LDMA): The samples were run in a customized assay with a 384-well format (ABI, Foster City, Calif.), where the expression of 45 to 381 relevant genes can be quantitatively tested. For this example, the array was designed with 8 replicated sections containing 48 wells, with primers of one gene per well: 3 housekeeping genes (HK: UBC, HPRT, SDHA), and 45 genes of interest. 50 μL of cDNA plus 50 μL of ABI mastermix were loaded onto each of two contiguous lanes to have duplicated readouts of every sample, and were run by real-time reverse transcriptase PCR (RT-PCR). The amount of change in the target genes was calculated by comparing the threshold cycle (CT) of each gene to the geometric mean of the CTs of the HK genes. Relative expression of the target genes was estimated using the formula: relative expression=2−^ΔCT, where ΔCT=CT (target gene)−CT (average of the 3 HK genes). The experiment was run in duplicate and mean values are analyzed.
Data analysis: The expression level of each gene in the treated sample was normalized to that of the untreated control. A significant change was defined when the gene expression either increases two-fold or more (>200%), or decreases to half or more (<50%). The rest is considered uninformative.

Q: For `Nc1ccn([C@@H]2O[C@H](CO)[C@@H](O)C2(F)F)c(=O)n1` [gemcitabine], which MAPK3 gene expression (case #3) is on record?
A: 109

Q: And the MDM2 gene expression (case #3)?
A: 137

Q: And the MSLN gene expression (case #3)?
A: 91

Q: And the NFKB1 gene expression (case #3)?
A: 94

Q: What about the NOTCH1 gene expression (case #3) of the same molecule?
A: 132

Q: And the NOTCH2 gene expression (case #3)?
A: 103

Q: What about the PLK1 gene expression (case #3) of the same molecule?
A: 36

Q: And the PSCA gene expression (case #3)?
A: 115

Q: What about the PTCH gene expression (case #3) of the same molecule?
A: 53

Q: What about the RRM1 gene expression (case #3) of the same molecule?
A: 81

Q: And the SHH gene expression (case #3)?
A: 65

Q: And the Survivin gene expression (case #3)?
A: 58

Q: And the TGFA gene expression (case #3)?
A: 92

Q: And the VEGF gene expression (case #3)?
A: 86

Q: And the VHL gene expression (case #3)?
A: 118

Q: And the p21 gene expression (case #3)?
A: 99

Q: And the AXIN2 gene expression (case #4)?
A: 142

Q: And the BAX gene expression (case #4)?
A: 100

Q: What about the BNIP3L gene expression (case #4) of the same molecule?
A: 115

Q: What about the BRAF gene expression (case #4) of the same molecule?
A: 175

Q: What about the BRCA1 gene expression (case #4) of the same molecule?
A: 343

Q: And the CCND1 gene expression (case #4)?
A: 171

Q: What about the CXCR4 gene expression (case #4) of the same molecule?
A: 13

Q: What about the CyclinB1 gene expression (case #4) of the same molecule?
A: 124

Q: And the DCK gene expression (case #4)?
A: 176

Q: And the EGFR gene expression (case #4)?
A: 54

Q: What about the ERCC1 gene expression (case #4) of the same molecule?
A: 94

Q: What about the FOS gene expression (case #4) of the same molecule?
A: 108

Q: And the GADD45A gene expression (case #4)?
A: 78

Q: What about the GLI2 gene expression (case #4) of the same molecule?
A: 11

Q: And the HIF1A gene expression (case #4)?
A: 146

Q: And the HIF1B gene expression (case #4)?
A: 56

Q: What about the IGF1R gene expression (case #4) of the same molecule?
A: 41

Q: What about the IGFBP3 gene expression (case #4) of the same molecule?
A: 130

Q: And the IHH gene expression (case #4)?
A: 92

Q: And the JUN gene expression (case #4)?
A: 83

Q: And the MAP2K2 gene expression (case #4)?
A: 146

Q: And the MAPK1 gene expression (case #4)?
A: 68

Q: What about the MAPK3 gene expression (case #4) of the same molecule?
A: 108

Q: What about the MDM2 gene expression (case #4) of the same molecule?
A: 43

Q: And the MSLN gene expression (case #4)?
A: 89

Q: And the NFKB1 gene expression (case #4)?
A: 104

Q: And the NOTCH1 gene expression (case #4)?
A: 134

Q: What about the NOTCH2 gene expression (case #4) of the same molecule?
A: 92

Q: What about the PLK1 gene expression (case #4) of the same molecule?
A: 15

Q: What about the PSCA gene expression (case #4) of the same molecule?
A: 81

Q: And the PTCH gene expression (case #4)?
A: 93

Q: And the RRM1 gene expression (case #4)?
A: 79

Q: And the SHH gene expression (case #4)?
A: 91

Q: And the Survivin gene expression (case #4)?
A: 166

Q: And the TGFA gene expression (case #4)?
A: 85

Q: What about the VEGF gene expression (case #4) of the same molecule?
A: 103

Q: And the VHL gene expression (case #4)?
A: 127

Q: What about the p21 gene expression (case #4) of the same molecule?
A: 102

Q: What about the AXIN2 gene expression (case #5) of the same molecule?
A: 210

Q: What about the BAX gene expression (case #5) of the same molecule?
A: 109

Q: And the BNIP3L gene expression (case #5)?
A: 90

Q: What about the BRAF gene expression (case #5) of the same molecule?
A: 146

Q: What about the BRCA1 gene expression (case #5) of the same molecule?
A: 95

Q: What about the CCND1 gene expression (case #5) of the same molecule?
A: 141

Q: And the CXCR4 gene expression (case #5)?
A: 229

Q: What about the CyclinB1 gene expression (case #5) of the same molecule?
A: 53

Q: And the DCK gene expression (case #5)?
A: 132

Q: And the EGFR gene expression (case #5)?
A: 71

Q: What about the ERCC1 gene expression (case #5) of the same molecule?
A: 105

Q: And the FOS gene expression (case #5)?
A: 112

Q: What about the GADD45A gene expression (case #5) of the same molecule?
A: 121

Q: What about the GLI2 gene expression (case #5) of the same molecule?
A: 118

Q: What about the HIF1A gene expression (case #5) of the same molecule?
A: 108

Q: What about the HIF1B gene expression (case #5) of the same molecule?
A: 65

Q: And the IGF1R gene expression (case #5)?
A: 61

Q: What about the IGFBP3 gene expression (case #5) of the same molecule?
A: 122

Q: And the IHH gene expression (case #5)?
A: 141

Q: What about the JUN gene expression (case #5) of the same molecule?
A: 135

Q: And the MAP2K2 gene expression (case #5)?
A: 151

Q: And the MAPK1 gene expression (case #5)?
A: 86

Q: And the MAPK3 gene expression (case #5)?
A: 95

Q: And the MDM2 gene expression (case #5)?
A: 73

Q: What about the MSLN gene expression (case #5) of the same molecule?
A: 100

Q: And the NFKB1 gene expression (case #5)?
A: 163

Q: What about the NOTCH1 gene expression (case #5) of the same molecule?
A: 89

Q: And the NOTCH2 gene expression (case #5)?
A: 56

Q: And the PLK1 gene expression (case #5)?
A: 21

Q: What about the PSCA gene expression (case #5) of the same molecule?
A: 102

Q: What about the PTCH gene expression (case #5) of the same molecule?
A: 48

Q: What about the RRM1 gene expression (case #5) of the same molecule?
A: 92

Q: What about the SHH gene expression (case #5) of the same molecule?
A: 113

Q: What about the Survivin gene expression (case #5) of the same molecule?
A: 67

Q: What about the TGFA gene expression (case #5) of the same molecule?
A: 97

Q: What about the VEGF gene expression (case #5) of the same molecule?
A: 107

Q: And the VHL gene expression (case #5)?
A: 79

Q: And the p21 gene expression (case #5)?
A: 143
